Entries after “also recorded” stand apart in the source; their conditions may differ.
Legend:
[1] = system: TGase activity (tTGase and Factor XIIIa) in meniscal cells; assay: TGase activity in cultured knee meniscal cells (BP incorporation into N,N-dimethylcasein); assay type: cell-based, human; details: meniscal cells, 72 hrs, IL-1 or TNFα 10 ng/ml; NMMA 10 μM or A20 transfection
Description: Meniscal cells were maintained in DMEM high glucose and supplemented with 10% FCS, 1% L-glutamine, 100 units/ml Penicillin and 50 μg/ml Streptomycin (Omega Scientific, Tarzana, Calif.) and cultured at 37° C. with 5% CO2. In monolayer cell culture studies involving stimulation by TGFE[…] or IL-1, the cells were placed in DMEM high glucose containing 1% FCS, 1% L-glutamine, 100 units/ml Penicillin and 50 μg/ml Streptomycin. In all other studies, the cells were cultured in complete medium (as described above). Only primary or first passage meniscal cells were studied.
TGase activity was measured by modifications to a previously described method (35). Specifically, we coated 96 well ImmunoModule plates (Nunc, Rochester, N.Y.) with 200 μl of 20 mg/ml N,N-dimethylcasein for 1 hr at 23° C. The N,N-dimethylcasein was removed and nonspecific protein binding was blocked by adding 3% BSA in 100 mM Tris, pH 8.5, 150 mM NaCl, 0.05% Tween-20 (TBST) to each well for an additional 1 hr at 23° C. Then, aliquots of 5 μg of total cellular protein from meniscal or TC28 cells that had been lysed and sonicated (in 5 mM Tris HCl, 0.25 M sucrose, 0.2 mM MgSO4, 2 mM DTT, 0.4 mM PMSF, 0.4% Triton X100, pH 7.5), were added to the plate in triplicate. To measure TGase in extracts of whole menisci, 50 mg dry weight of tissue from the central zone of each medial meniscus was used as the source (after solubilization and sonication) for aliquots of 5 μg of soluble protein. Fifty μl of solution A (100 mM Tris, pH 8.5 and 20 mM CaCl2) was added to all samples for TGase assay, followed by the addition of 50 μl of solution B (100 mM Tris, pH 8.5, 40 mM DTT and freshly added 2 mM 5-(Biotinamido) pentylamine (BP)). The plates were incubated for 1 hr at 37° C. The wells were washed once with TBST containing 1 mM EDTA and then three times with TBST. One hundred μl of a 1:500 dilution of streptavidin-AP in 3% BSA/TBST was added to each well for 1 hr at 23° C. The wells were washed twice with TBST, and 200 μl of solution C (100 mM Tris, pH 9.8, mM NaCl, 5 mM MgCl2, 1 mg/ml of freshly added p-nitrophenylphosphate) was added to each well. Readings at OD410 were taken over 15 minutes. Purified guinea pig liver TGase (Sigma) was used to prepare a standard curve. TGase activity was designated as the amount of BP incorporated into casein (per μg cellular DNA, determined chromogenically following precipitation in perchlorate (28), or, where indicated, per μg protein, determined as previously described (28)).
To directly induce expression of each TGase in meniscal cells, 5×10^5 primary cells were plated in 60 mm dishes and allowed to adhere overnight. We modified (28) the manufacturer's protocol for the Lipofectamine Plus kit (Life Technologies, Grand Island, N.Y.). To optimize the transfection of meniscal cells, we added 2.0 ml of serum-free DMEM/F12 containing 0.00015% digitonin to washed cells and incubated for 3 min at 23° C. Then, media was removed, and cells transfected at 37° C. for 7 hrs, followed by removal of the media and addition of complete DMEM high glucose medium. Transfection of each TGase into TC28 cells was done by the same procedure, with the exception that the digitonin permeabilization step was omitted.

[2] = system: NO release by meniscal cells; assay: NO release by cultured meniscal cells (Greiss reaction); assay type: cell-based, human; details: 72 hrs, IL-1 or TNFα 10 ng/ml, NMMA 10 μM or A20 transfection
Description: NO release by 3×10^5 meniscal cells, which were plated and stimulated with TNFα (10 ng/ml) or IL-1 (10 ng/ml), with or without 10 μM NMMA (FIG. 8A), for 72 hrs was studied. Conditioned media were collected and 50 μl aliquots analyzed for NO release using the Greiss Reaction, with results expressed as μmoles released per μg DNA. […] After 72 hrs of incubation with TNFα or IL-1, the conditioned media were collected from the cultured, transfected cells and analyzed in triplicate for NO release, as above. Data pooled from 4 normal donors studied in triplicate for FIGS. 8A and 8B. *p<0.05.
PPi was determined by differential adsorption on activated charcoal of UDP-D-[6-^3H] glucose (Amersham, Chicago, Ill.) from the reaction product 6-phospho [6-^3H] gluconate (28). Units of NTPPPH and AP were designated as micromoles of substrate hydrolyzed per hour (per μg DNA in each sample) (28). NO release by cultured meniscal cells was measured using the Greiss reaction (33). Concentrations or specific activities of PPi, NTPPPH, and AP were equalized for cellular DNA concentrations in each well.

## CNC(=N)NCCC[C@H](N)C(=O)O [NMMA, reference compound]
[1]
  Effect on IL-1 and TNFα-induced TGase activity: blocked the ability of both IL-1 and TNFα to induce TGase activity; also recorded: attenuated LL-1 and TNFα-induced TGase activity
[2]
  Effect on IL-1 and TNFα-induced NO release: attenuated IL-1 and TNFα-induced NO release; also recorded: suppresses IL-1 and TNFα-induced NO release

From US20040109845A1, “Method for inhibiting articular cartilage matrix calcification” (priority 2001, published 2004)
